The molecules below were run against T1, Sterol O-acyltransferase 1 (Homo sapiens, UniProt P35610) (assay: Inhibition of human ACAT1 expressed in AC29 cells by cell-based fluorescent assay system). Settings: not given.
T1 sequence (P35610 whole entry): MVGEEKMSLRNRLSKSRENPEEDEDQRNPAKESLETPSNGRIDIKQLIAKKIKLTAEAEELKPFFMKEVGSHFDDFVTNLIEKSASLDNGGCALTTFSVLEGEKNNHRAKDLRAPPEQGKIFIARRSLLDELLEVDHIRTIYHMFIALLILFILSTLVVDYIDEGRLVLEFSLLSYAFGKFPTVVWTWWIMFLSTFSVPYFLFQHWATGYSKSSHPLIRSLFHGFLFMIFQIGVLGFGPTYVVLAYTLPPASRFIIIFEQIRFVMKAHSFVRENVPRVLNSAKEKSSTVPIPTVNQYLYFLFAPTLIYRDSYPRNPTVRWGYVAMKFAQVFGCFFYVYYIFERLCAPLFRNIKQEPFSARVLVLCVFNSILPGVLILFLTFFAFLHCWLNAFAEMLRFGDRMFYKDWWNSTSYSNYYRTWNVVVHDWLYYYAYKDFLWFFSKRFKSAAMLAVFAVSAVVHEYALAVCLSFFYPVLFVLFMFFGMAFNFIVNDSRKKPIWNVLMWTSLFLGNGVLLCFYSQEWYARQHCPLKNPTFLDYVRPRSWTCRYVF
Molecule `CC(C)=CC[C@@H](OC(=O)CC(C)C)C1=CC(=O)c2c(O)ccc(O)c2C1=O` has an IC50 of 0.6 µM.

These molecules were tested against T1, Sterol O-acyltransferase 1 (assay: Inhibition of human ACAT1 expressed in Hi5 cells). Settings: not given.
Design: species or system BTI-TN-5B1-4
In the case of `CC(C)=CC[C@@H](OC(=O)CC(C)C)C1=CC(=O)c2c(O)ccc(O)c2C1=O`, the IC50 is reported as 13.8 µM.

What follows are molecules tested against T2, Sterol O-acyltransferase 2 (Homo sapiens, UniProt O75908) (assay: Inhibition of human ACAT2 expressed in Hi5 cells). Settings: not given.
T2 sequence (O75908 whole entry): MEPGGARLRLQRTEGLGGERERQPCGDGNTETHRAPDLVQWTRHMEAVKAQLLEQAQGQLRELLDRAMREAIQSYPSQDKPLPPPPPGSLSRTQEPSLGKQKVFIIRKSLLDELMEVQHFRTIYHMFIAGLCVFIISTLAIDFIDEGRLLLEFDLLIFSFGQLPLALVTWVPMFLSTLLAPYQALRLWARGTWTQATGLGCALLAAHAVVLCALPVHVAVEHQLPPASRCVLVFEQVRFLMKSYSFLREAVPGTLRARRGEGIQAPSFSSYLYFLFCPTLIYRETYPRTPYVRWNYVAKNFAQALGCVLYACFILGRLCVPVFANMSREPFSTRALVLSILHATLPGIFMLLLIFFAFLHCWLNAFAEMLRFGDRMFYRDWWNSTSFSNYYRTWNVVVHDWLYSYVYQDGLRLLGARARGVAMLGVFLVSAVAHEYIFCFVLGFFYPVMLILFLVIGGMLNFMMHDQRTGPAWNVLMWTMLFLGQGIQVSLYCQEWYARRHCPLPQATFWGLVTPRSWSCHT
Design: species or system BTI-TN-5B1-4
For `CC(=O)O[C@H](CC=C(C)C)C1=CC(=O)c2c(O)ccc(O)c2C1=O` [ACETYLSHIKONIN], the IC50 was 112 µM.
`CC(C)=CC[C@@H](O)C1=CC(=O)c2c(O)ccc(O)c2C1=O` [SHIKONIN] was tested, and the IC50 was 138 µM.
`CC(C)=CC[C@@H](OC(=O)c1ccccc1)C1=CC(=O)c2c(O)ccc(O)c2C1=O` gave an IC50 of 56.2 µM.
For `CCCC(=O)O[C@H](CC=C(C)C)C1=CC(=O)c2c(O)ccc(O)c2C1=O`, the IC50 was 49.6 µM.
Molecule `CC(C)=CC[C@@H](OC(=O)C(C)C)C1=CC(=O)c2c(O)ccc(O)c2C1=O` [ISOBUTYLSHIKONIN] has an IC50 of 57.5 µM.
`CCCCC(=O)O[C@H](CC=C(C)C)C1=CC(=O)c2c(O)ccc(O)c2C1=O` showed an IC50 of 84.5 µM.
For `C=CCCC(=O)O[C@H](CC=C(C)C)C1=CC(=O)c2c(O)ccc(O)c2C1=O`, the IC50 was 71.4 µM.
Work on `CC(C)=CC[C@@H](OC(=O)CC(C)(C)O)C1=CC(=O)c2c(O)ccc(O)c2C1=O` [BETA-HYDROXYISOVALERYLSHIKONIN] yielded an IC50 of 170 µM.
`CCC(=O)O[C@H](CC=C(C)C)C1=CC(=O)c2c(O)ccc(O)c2C1=O` showed an IC50 of 28.7 µM.

The molecules below were run against T3, Sterol O-acyltransferase 1 (Homo sapiens) (UniProt P35610) (assay: Inhibition of human ACAT1 expressed in Hi5 cells at 120 uM). Settings: BTI-TN-5B1-4.
T3 sequence (whole entry): T1 sequence (P35610 whole entry)
In the case of `CC(C)=CC[C@@H](OC(=O)C(C)C)C1=CC(=O)c2c(O)ccc(O)c2C1=O` [ISOBUTYLSHIKONIN], the inhibition is reported as 32%.

Source: ChEMBL document CHEMBL1139051, “Human ACAT inhibitory effects of shikonin derivatives from Lithospermum erythrorhizon” (Bioorg Med Chem Lett, 2007)
